Patent US7098007B2, “Cloning and functional assays of Xenopus ATR” (California Institute of Technology, priority 2001, dated 2006)
Entries after “also recorded” stand apart in the source; their conditions may differ.

Columns and labels:
[1] = tested on: Xchk1; test: Phosphorylation of Xchk1 in Xenopus egg extracts; assay type: biochemical
Procedure: To address this question, we first measured phosphorylation of Xchk1 in egg extracts undergoing a checkpoint delay in response to a block to DNA replication. […] Briefly, ^35S-labeled wildtype or mutant Xchk1 (T314A, S344A, T314A+S344A, S356A, S365A, S356A+S365A, 4AQ) protein was incubated with egg extracts in the presence or absence of aphidicolin. ^35S labeled proteins were isolated and analyzed by gel electrophoresis for a phosphorylation-dependent shift in mobility.
Using the S344-p antibodies, we examined in more detail the phosphorylation of Xchk1 expressed in egg extracts. […] Following the incubation, the recombinant proteins were reisolated with glutathione agarose and detected by immunoblot with anti-GST antibodies and anti-S344-p antibodies.
Following 90 minute incubation, the preparation was diluted in 400 μL of dilution buffer (10 mM HEPES at pH 7.5, 150 mM NaCl, 20 mM β-glycerolphosphate, 2.5 mM EGTA, and 0.1% CHAPS). Recombinant Xchk1 proteins were isolated with glutathione agarose, washed, eluted, subjected to SDS-PAGE, and immunoblotted with either anti-GST antibodies (Santa Cruz Biotechnology) or anti-S344-p antibodies.

[2] = biological target: T1, Xatr (Xenopus laevis, UniProt Q9DE14); test: Binding of Xatr to single-stranded and double-stranded DNA cellulose in egg cytosol; design: we examined the association of Xatr with both single and double-stranded DNA in Xenopus egg extracts; from tissue; host or cells: Xenopus interphase egg cytosol; details: 50 μL cytosol, with or without APH
T1 sequence (Q9DE14 whole entry Y191C/P249S/H2082P/D2362G): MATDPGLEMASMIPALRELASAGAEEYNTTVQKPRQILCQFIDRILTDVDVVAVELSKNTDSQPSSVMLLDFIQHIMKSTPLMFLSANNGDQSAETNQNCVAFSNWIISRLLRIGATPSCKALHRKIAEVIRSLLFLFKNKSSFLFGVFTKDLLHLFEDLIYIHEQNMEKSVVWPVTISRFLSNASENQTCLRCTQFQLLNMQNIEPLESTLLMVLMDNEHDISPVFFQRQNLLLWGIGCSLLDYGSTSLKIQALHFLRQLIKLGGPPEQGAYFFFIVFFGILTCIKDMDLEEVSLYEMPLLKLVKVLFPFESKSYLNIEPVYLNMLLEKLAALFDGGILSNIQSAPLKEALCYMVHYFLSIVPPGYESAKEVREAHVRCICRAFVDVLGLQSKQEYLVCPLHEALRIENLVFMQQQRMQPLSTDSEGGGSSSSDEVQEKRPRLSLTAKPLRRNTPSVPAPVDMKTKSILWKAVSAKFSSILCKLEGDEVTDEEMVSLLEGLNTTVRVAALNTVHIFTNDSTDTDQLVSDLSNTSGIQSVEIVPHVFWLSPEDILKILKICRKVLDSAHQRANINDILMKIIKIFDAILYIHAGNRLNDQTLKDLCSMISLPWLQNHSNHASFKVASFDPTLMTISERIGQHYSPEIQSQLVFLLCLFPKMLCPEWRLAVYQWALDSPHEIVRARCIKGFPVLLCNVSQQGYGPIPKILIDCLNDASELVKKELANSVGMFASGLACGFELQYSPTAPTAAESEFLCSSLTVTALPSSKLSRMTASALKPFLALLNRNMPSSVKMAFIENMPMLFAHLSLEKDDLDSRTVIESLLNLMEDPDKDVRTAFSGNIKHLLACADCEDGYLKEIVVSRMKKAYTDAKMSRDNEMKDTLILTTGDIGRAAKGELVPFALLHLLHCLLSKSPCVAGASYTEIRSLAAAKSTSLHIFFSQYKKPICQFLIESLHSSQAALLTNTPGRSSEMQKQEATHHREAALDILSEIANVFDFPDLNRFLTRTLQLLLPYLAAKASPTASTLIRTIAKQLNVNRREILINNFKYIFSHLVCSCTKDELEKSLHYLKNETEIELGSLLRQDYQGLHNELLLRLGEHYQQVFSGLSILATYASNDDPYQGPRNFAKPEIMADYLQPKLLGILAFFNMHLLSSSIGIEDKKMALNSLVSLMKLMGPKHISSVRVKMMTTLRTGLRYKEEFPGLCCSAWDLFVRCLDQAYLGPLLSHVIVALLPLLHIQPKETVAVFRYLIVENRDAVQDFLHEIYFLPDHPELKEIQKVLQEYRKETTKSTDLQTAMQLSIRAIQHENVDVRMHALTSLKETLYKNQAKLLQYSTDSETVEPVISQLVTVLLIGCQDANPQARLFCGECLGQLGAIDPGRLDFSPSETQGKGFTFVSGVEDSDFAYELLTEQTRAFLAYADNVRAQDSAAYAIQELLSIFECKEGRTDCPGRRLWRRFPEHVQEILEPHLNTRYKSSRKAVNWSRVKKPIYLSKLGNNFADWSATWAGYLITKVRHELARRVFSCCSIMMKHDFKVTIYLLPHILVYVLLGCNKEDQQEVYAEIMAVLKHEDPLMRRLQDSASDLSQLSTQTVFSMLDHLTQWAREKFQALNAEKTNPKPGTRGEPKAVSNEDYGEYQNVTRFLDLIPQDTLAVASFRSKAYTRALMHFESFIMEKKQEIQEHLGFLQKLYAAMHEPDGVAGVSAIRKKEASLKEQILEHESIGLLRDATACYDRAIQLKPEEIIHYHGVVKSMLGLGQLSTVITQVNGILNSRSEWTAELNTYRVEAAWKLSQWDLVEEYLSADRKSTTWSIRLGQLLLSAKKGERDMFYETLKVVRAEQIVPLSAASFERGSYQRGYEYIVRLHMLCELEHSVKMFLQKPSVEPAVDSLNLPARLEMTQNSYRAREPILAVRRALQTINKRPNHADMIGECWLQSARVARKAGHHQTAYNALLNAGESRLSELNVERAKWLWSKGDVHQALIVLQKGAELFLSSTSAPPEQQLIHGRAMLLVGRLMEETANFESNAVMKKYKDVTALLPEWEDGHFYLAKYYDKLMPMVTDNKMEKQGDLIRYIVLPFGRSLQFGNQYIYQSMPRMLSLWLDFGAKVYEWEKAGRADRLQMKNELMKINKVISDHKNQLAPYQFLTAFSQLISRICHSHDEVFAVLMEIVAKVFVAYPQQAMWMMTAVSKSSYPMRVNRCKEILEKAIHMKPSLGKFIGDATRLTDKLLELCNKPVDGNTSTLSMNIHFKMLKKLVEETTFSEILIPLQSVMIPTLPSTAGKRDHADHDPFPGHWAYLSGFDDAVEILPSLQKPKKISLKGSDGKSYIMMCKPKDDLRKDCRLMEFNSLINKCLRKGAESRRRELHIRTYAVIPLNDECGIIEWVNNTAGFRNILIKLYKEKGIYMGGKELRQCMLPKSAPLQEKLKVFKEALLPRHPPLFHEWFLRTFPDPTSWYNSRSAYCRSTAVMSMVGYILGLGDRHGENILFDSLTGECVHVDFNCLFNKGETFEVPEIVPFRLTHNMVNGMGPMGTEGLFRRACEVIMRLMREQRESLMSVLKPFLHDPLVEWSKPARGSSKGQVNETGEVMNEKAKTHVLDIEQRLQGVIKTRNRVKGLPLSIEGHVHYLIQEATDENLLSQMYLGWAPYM
Procedure: In order to functionally characterize Xatr, we examined the association of Xatr with both single and double-stranded DNA in Xenopus egg extracts, under a variety of conditions. […] Briefly, control cellulose, single-stranded DNA cellulose, or double-stranded DNA cellulose were incubated with 50 μL of cytosol in the presence or absence of APH or PCL. Washed cellulose beads were boiled in gel loading buffer, and half of this was subjected to immunoblot analysis using an Xatr polyclonal antibody prepared in Example 1.
Preparation of DNA cellulose: M13 DNA (single-stranded DNA) was prepared according to the manufacturers instructions (Amersham). pBS plasmids (pBluescript—double stranded DNA) were prepared by a standard alkaline lysis procedure. 1 mg of M13 DNA or pBluescript DNA in 1 mL of TE buffer (10 mM Tris-HCL, 1 mM EDTA at pH 8.0) was incubated with 0.3 grams of cellulose for 5 minutes at 23° C. Following incubation, the preparation was lyophilized for 18 hours. The resulting lyophilized powder was resuspended in 20 volumes of TE, incubated at 4° C. for 24 hours, washed with TE, and frozen at −70° C. until use. Naked control cellulose was prepared under the same conditions, however, the addition of either single or double stranded DNA was omitted.
Binding of Xatr to DNA cellulose: 25–100 μL of DNA cellose was incubated with 50–500 μL of interphase egg cytosol for 40 minutes at 23° C. […]

[3] = biological target: T1, Xatr; test: Xatr kinase assay: phosphorylation of model substrate PHAS-I by anti-Xatr immunoprecipitates; assay type: biochemical; design: Xatr was immunoprecipitated from Xenopus egg extracts using an anti-Xatr antibody; from tissue; host or cells: Xenopus egg extracts (immunoprecipitate with anti-peptide 1617-1630 antibody); details: 0.04, 0.2, 1 or 5 mM caffeine; anti-Xatr immunoprecipitates from egg extracts; autoradiography
Procedure: Given the conservation of the PIK-related kinase domain among ATR homologs, we characterized the kinase activity of Xatr. Xatr was immunoprecipitated from Xenopus egg extracts using an anti-Xatr antibody (as described in Example 1).
To further assess the relationship between Xatr and other PIK-related kinases, we next assessed the effects of caffeine on the kinase activity of Xatr. […] Briefly, kinase assays were performed by incubating anti-Xatr immunoprecipitates (lanes 1–5) or control immunoprecipitates (lanes 6–10) with the model substrate PHAS-I, in the presence of 0 (lanes 1 and 6), 0.04 mM (lanes 5 and 10), 0.2 mM (lanes 4 and 9), 1 mM (lanes 3 and 8) or 5 mM (lanes 2 and 7) caffeine. Proteins were subjected to SDS-PAGE and visualized by silver staining (bottom panel). Phosphorylation of PHAS-I was detected by autoradiography (middle panel).
METHODS: Polyclonal antibodies generated against an Xatr peptide ([…], SEQ ID NO: 11), as shown in Example 1, were used to immunoprecipitate Xatr. Immunoprecipitation and kinase assays were performed using standard methods, and as previously shown (Guo and Dunphy (2000) Mol. Biol Cell 11: 1535–1546).

[4] = biological target: ATR (Homo sapiens, UniProt Q13535); details: cited from earlier work
[5] = biological target: ATM (Homo sapiens, UniProt Q13315); details: cited from earlier work
[6] = biological target: TOR (Homo sapiens, UniProt P42345); details: cited from earlier work

Row | Structure (SMILES) | phosphorylation of wildtype Xchk1 at Ser 344 (anti-S344-p immunoblot) ([1]; 100 μg/mL aphidicolin and sperm nuclei, 90 minutes, interphase extract) | phosphorylation of wildtype Xchk1 (phosphorylation-dependent shift in mobility) ([1]; 35S-labeled Xchk1 in egg extracts, presence versus absence of aphidicolin) | interaction of Xatr with DNA cellulose [2] | half-maximal dose for inhibition of Xchk1 phosphorylation, compared with inhibition of Xatr kinase activity ([1]; egg extracts treated with aphidicolin, compared with FIG. 3D) | phosphorylation of Xchk1 in response to unreplicated DNA ([1]; egg extracts treated with aphidicolin, increasing concentrations of caffeine) | kinase activity of Xatr (phosphorylation of PHAS-I) [3] | kinase activity of ATR, sensitivity to caffeine [4] | kinase activity of ATM, sensitivity to caffeine [5] | kinase activity of TOR, sensitivity to caffeine [6]
1 | C[C@@]1(CO)[C@H](O)CC[C@@]2(C)[C@H]1CC[C@H]1C[C@@H]3C[C@@]12CC[C@]3(O)CO [aphidicolin] | phosphorylated at position 344 | phosphorylated | occurs in the presence or the absence | – | – | – | – | – | –
2 | Cn1c(=O)c2c(ncn2C)n(C)c1=O [caffeine] | – | – | – | approximately the same half-maximal dose | inhibited | significant decrease in phosphorylation of PHAS-I; also recorded: sensitive | sensitive | sensitive | sensitive
